# Source: patent US20090036449A1, “Indazolesquaric Acid Derivatives as Chk1, Chk2 and Sgk Inhibitors” (priority 2005, published 2009)
# Molecular target: T1, SGK1 protein kinase (Homo sapiens, UniProt O00141)
# T1 sequence (O00141 1-431): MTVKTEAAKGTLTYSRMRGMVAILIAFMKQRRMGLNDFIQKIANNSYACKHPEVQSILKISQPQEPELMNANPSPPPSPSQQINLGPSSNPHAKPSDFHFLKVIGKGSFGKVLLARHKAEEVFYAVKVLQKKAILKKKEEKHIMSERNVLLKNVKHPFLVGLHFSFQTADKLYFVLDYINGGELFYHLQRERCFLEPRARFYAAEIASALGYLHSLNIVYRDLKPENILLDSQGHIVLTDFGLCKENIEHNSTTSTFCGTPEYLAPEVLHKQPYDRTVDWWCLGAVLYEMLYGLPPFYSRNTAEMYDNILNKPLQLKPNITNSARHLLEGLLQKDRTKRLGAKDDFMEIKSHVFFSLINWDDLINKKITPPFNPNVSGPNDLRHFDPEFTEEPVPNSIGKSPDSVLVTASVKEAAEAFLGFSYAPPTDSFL
# Assay: SGK inhibition (filter binding method, analogously to CHK1, CHK2)
# Format: biochemical
# Experimental: (§1) 5-20 mU of CHK1 kinase (diluted in 20 mM MOPS pH7.5, 1 mM EDTA, 0.1% β-mercaptoethanol, 0.01% Brij-35, 5% glycerol, 1 mg/ml of BSA) are incubated for 30 min at room temperature in the presence of 30-200 μM CHKtide in 25.5 μl in 1-fold reaction buffer (8 mM MOPS pH7, 0.2 mM EDTA, 10 mM magnesium acetate, 0.02 mM ^33P-ATP [500-1000 cpm/pmol]). The reaction is stopped using 5 μl of 0.5 M ortho-phosphoric acid and filtered through P81 filter plates. After the filter plates have been washed a number of times, the bound radioactivity is determined in a scintillation counter.
# as §1, with “CHK2” for “CHK1”, “CHKtide ([…])” for “CHKtide”
# The inhibition of SGK1 protein kinase can be determined in the filter binding method (analogously to CHK1, CHK2).
row,SMILES,IC50 [nM]
1,"COc1cccc(CNc2c(Nc3ccc4[nH]nc(NC(=O)c5ccccc5)c4c3)c(=O)c2=O)c1 [Compound 41, 3-(3-benzoylamino-1H-indazol-5-ylamino)-4-(3-methoxybenzylamino)cyclobut-3-ene-1,2-dione]",61.5
2,"O=C(Nc1n[nH]c2ccc(Nc3c(NCc4cccc(O)c4)c(=O)c3=O)cc12)c1ccccc1 [Compound 40, 3-(3-benzoylamino-1H-indazol-5-ylamino)-4-(3-hydroxybenzylamino)cyclobut-3-ene-1,2-dione]",10
3,"COc1cccc([C@@H](C)Nc2c(Nc3ccc4[nH]nc(NC(=O)c5ccccc5)c4c3)c(=O)c2=O)c1 [Compound 42, 3-(3-benzoylamino-1H-indazol-5-ylamino)-4-[(R)-1-(3-methoxyphenyl)ethylamino]cyclobut-3-ene-1,2-dione]",10
